For experiment [1], the system named is Mus musculus. Description: Antidiabetic activity in six hour fasted type 2 diabetic C57BL/6 db/db mouse assessed as decrease in fasting blood glucose level at 250 mg/kg,po for 4 weeks by Glucose analyzer. Also noted: scale not given: the % may be the effect or the level left. The class given is functional.
The nature of experiment [2]: Inhibition of Lipoxygenase (unknown origin). Also noted: species or system Homo sapiens.
Experiment [3] has as its system Leishmania major. Description: Antileishmanial activity against Leishmania major MHOM/IL/80/Friendlin assessed as reduction in parasite growth incubated for 24 hrs by resazurin dye based analysis. The class given is functional, organism-based.
The target of experiment [4] is Alpha-synuclein (Homo sapiens, UniProt P37840). Description: Inhibition of wild type full length recombinant alpha-synuclein (unknown origin) expressed in Escherichia coli by spectrophotometric analysis.
Experiment [5] relates to Splenocyte. Description: Immunomodulatory activity in mouse splenocytes assessed as maximum effect in CD3+ T cell production at 4 microg/ml incubated for 24 hrs by flow cytometry relative to control. In kind it is functional. The note with it: dose 4 µg/ml.
In experiment [6] the test system is Splenocyte. Description: Immunomodulatory activity in mouse splenocytes assessed as maximum effect in CD4+ T cell production at 4 microg/ml incubated for 24 hrs by flow cytometry relative to control. The class given is functional. The note with it: dose 4 µg/ml.
Experiment [7] has as its system Rattus norvegicus. Put plainly: Anti-inflammatory activity against serotonin-induced paw edema in Sprague-Dawley rat assessed as inhibition of paw edema at 10 mg/kg, po measured after 5 hrs relative to control. The class given is functional. Also noted: scale not given: the % may be the effect or the level left.
The species entered for experiment [8] is Rattus norvegicus. Description: Antioxidant activity in Vitamin E deficient rat model assessed as onset of ascorbate/Fe2+/ADP complex-initiated peroxidation delayed time by measuring onset of peroxidation (lag phase) at 0.25 mM by Thiobarbituric acid substance assay. The class given is functional.
The species named for experiment [9] is Rattus norvegicus. Description: Antioxidant activity in Vitamin E deficient rat model assessed as onset of ascorbate/Fe2+/ADP complex-initiated peroxidation delayed time by measuring onset of peroxidation (lag phase) at 0.5 mM by Thiobarbituric acid substance assay. The class given is functional.

≈ marks a conversion by molar mass, not a printed value.

This is an account of results in ChEMBL document CHEMBL5528024, “Comprehensive and critical view on the anti-inflammatory and immunomodulatory role of natural phenolic antioxidants” (Eur J Med Chem, 2024).

As for `O=C(/C=C/c1ccc(O)c(O)c1)O[C@@H]1C[C@](O)(C(=O)O)C[C@@H](O)[C@H]1O` [CHLOROGENIC ACID], in [1], the Activity was 31%. Consider `COc1cc(/C=C/C(=O)CC(=O)/C=C/c2ccc(O)c(OC)c2)ccc1O` [CURCUMIN], for which the IC50 in experiment [2] amounted to 45.3 µM.

For `O=c1oc2c(O)c(O)cc3c(=O)oc4c(O)c(O)cc1c4c23` [ELLAGIC ACID], in experiment [3], the EC50 turned out to be 0.9 µg/mL (≈ 2.98 µM).

Turning to `COc1cc(/C=C/C(=O)O)ccc1O` [FERULATE], the IC50 in experiment [4] is 13 µM.

Consider `O=c1c(O)c(-c2ccc(O)c(O)c2)oc2cc(O)ccc12` [FISETIN], for which the Activity came out at 39.62% in experiment [5] and 28.92% in experiment [6]. In the case of `O=C(O)c1cc(O)c(O)c(O)c1` [GALLIC ACID], the EC50 in experiment [3] worked out at 5 µg/mL (≈ 29.4 µM). For `COc1ccc2c(c1)c(CC(=O)O)c(C)n2C(=O)c1ccc(Cl)cc1` [INDOMETHACIN], in experiment [7], the Activity is 34.2%. As to `O=c1c(O)c(-c2cc(O)c(O)c(O)c2)oc2cc(O)cc(O)c12` [MYRICETIN], the Time in experiment [8] was 12.6 min; in experiment [9], 14.3 min.
